Experimental data from patent US5236912A, “Antiandrogenic [3,2-c]pyrazole and [3,2-d]triazole steroids” (Schering Aktiengesellschaft, priority 1990, dated 1993).
Where “and” joins values, the source holds several entries; their conditions need not be identical. Equal entries are not always repeated.

Assays:
testosterone levels [1] = test: peripheral selectivity / counter regulation: testosterone levels in rats after administration of the compound; format: in vivo; conditions: for Counter Regulation: testosterone levels 24 hours after 10 mg s.c., lack of counter regulation = peripheral selectivity
Method: In order to test peripheral selectively, the testosterone levels are measured in rats 24 hours after administration of 10 mg s.c. of the compound: lack of counter regulation is evaluated as peripheral selectively.

[2] = test system: orchiectomized, testosterone propionate-substituted rats; conditions: compound described in EP 0 207 375 A1; cited from earlier work
[3] = test system: orchiectomized, testosterone propionate-substituted rats; test: classical antiandrogen test on orchiectomized, testosterone propionate-substituted rats (inhibition of prostate weight); format: in vivo; conditions: 3 mg s.c.; for Antiandrogen Test: % Inhibition of Prostate Weight: orchiectomized, testosterone propionate-substituted rats (0.1 mg/animal/day), seven day treatment
Method: These two compounds, the classical antiandrogen test on orchiectomized, testosterone propionate-substituted rats (dose: 0.1 mg/animal/day) show, after a seven day treatment (s.c.) with 3 mg/animal/day) of the antiandrogen, merely about 30% of the antiandrogenic potency of cyproterone acetate (17α-acetoxy-6-chlor-1α,2α-methylene-4,6-pregnadiene-3,20-dione) which constitutes the standard antiandrogen (Friedmund Neumann, Rudolf Wiechert, "Die Geschichte von Cyproteronacetat, Ungewoehnliche Wege bei der Entwicklung eines Arzneimittels" [The History of Cyproterone Acetate, the Development of a Medicine Along Unusual Routes], MPS Medizinisch-Pharmazeutische Studiengesellschaft e.V. [Association for Medical-Pharmaceutical Studies] Mainz, Mainz (1984).

testosterone levels [4] = conditions: in words, background statement; cited from earlier work

| SMILES | testosterone level in the serum (testosterone levels [1]; central effect (counter regulation by feedback)) | peripheral selectivity (testosterone levels [1]; lack of counter regulation is evaluated as peripheral selectivity) | Counter Regulation (testosterone levels [1]) | antiandrogen activity compared with cyproterone acetate [2] | Antiandrogen Test: % Inhibition of Prostate Weight [3] | Antiandrogen Test: % Inhibition of Prostate Weight, comparison Cyproterone Acetate (value in parentheses) ([3]; cyproterone acetate comparison value) | effect on the hypothalamus-hypophysis system (testosterone levels [4]) |
| --- | --- | --- | --- | --- | --- | --- | --- |
| CC1=C2CCC3C(CCC4(C)C3CCC4(C)O)C2(C)Cc2cn(S(C)(=O)=O)nc21 (stereo not drawn) [E, 4,17α-dimethyl-1'-mesyl-1'H-androst-4-eno[3,2-c]pyrazol-17β-ol] | raises the testosterone level in the serum | no peripheral selectivity | Yes | comparable to cyproterone acetate | 88% |  |  |
| CC12Cc3cn(S(C)(=O)=O)nc3C=C1CCC1C2CCC2(C)C1C=CC2(C)O (stereo not drawn) [A, 1'-mesyl-17α-methyl-1'H-androsta-4,15-dieno[3,2-c]pyrazol-17β-ol] |  |  | No |  | 80% |  |  |
| CC12Cc3cn(S(C)(=O)=O)nc3C=C1C1(CC1)CC1C2CCC2(C)C1CCC2(C)O (stereo not drawn) [B, 6,6-ethylene-1'-mesyl-17α-methyl-1'H-androst-4-eno[3,2-c]pyrazol-17β-ol] |  |  | No |  | 73% |  |  |
| CC12Cc3nn(S(C)(=O)=O)nc3C=C1CCC1C2CCC2(C)C1C=CC2(C)O (stereo not drawn) [D, 2'-mesyl-17α-methyl-2'H-triazolo[4',5':2,3]androsta-4,15-dien-17β-ol] |  |  | No |  | 97% |  |  |
| CC(=O)O[C@]1(C(C)=O)CC[C@H]2[C@@H]3C=C(Cl)C4=CC(=O)[C@@H]5C[C@@H]5[C@]4(C)[C@H]3CC[C@@]21C [Cyproterone Acetate, 17α-acetoxy-6-chlor-1α,2α-methylene-4,6-pregnadiene-3,20-dione] |  |  |  |  |  | 97% and 86% and 87% and 95% and 100% | affecting, as does the latter compound, the hypothalamus-hypophysis system |
| CC1CC2=Cc3nn(S(C)(=O)=O)cc3CC2(C)C2CCC3(C)C(CCC3(C)O)C12 (stereo not drawn) [C, 7α,17α-dimethyl-1'-mesyl-1'H-androst-4-eno[3,2-c]pyrazol-17β-ol] |  |  | No |  | 53% |  |  |
